Legend:
[1] = Blood chemistries in C57 B mice; assay type: in vivo, mouse; conditions: 4 mg/kg b.w. alternate day, 2 weeks
Experimental: To evaluate the potential toxicity of COH-SR4 on animals, C57 B mice were treated with 0.1 mg/mice (4 mg/kg b.w.) of COH-SR4 or with vehicle on alternate day for 2 weeks (n=6). After the treatment period, blood and plasma/serum were isolated and analyzed. […] The plasma alanine transaminase (ALT) and alkaline phosphatase (ALP) were moderately higher in COH-SR4-treated mice (p<0.05), while the levels of two other liver enzymes; aspartate transaminase (AST) and lactate dehydrogenase (LDH) were similar with control mice (Table 5).

[2] = test system: B16F10 cells; assay: B16F10 cell viability; assay type: cell-based, mouse; conditions: 1-10 μM, 48 hours; vs COH-SR9 and COH-SR18
Experimental: Cells of highly aggressive mouse melanoma cell line B16F10 were incubated with various doses of COH-SR4, COH-SR9 and COH-SR18 (1, 3, 5 or 10 μM) for 48 hours.

[3] = test system: SK-Mel-31; assay: Colony formation assay, SK-Mel-31; assay type: cell-based, human; conditions: 5 μM
Experimental: (§1) Cell survival was evaluated using a standard colony-forming assay. In total, 1×10^5 cells/mL were incubated with COH-SR4 (1.5 μM or 5 μM) or elesclomol (5 μM) for 24 h, and aliquots of 50 or 100 μL were added to 60 mm size petri dishes, containing 4 mL culture medium. After 7 or 10 days, adherent colonies were fixed, stained with 0.5% methylene blue for 30 min and colonies were counted using the Innotech Alpha Imager HP (91).

[4] = test system: H520; assay: Colony formation assay, H520; assay type: cell-based, human; conditions: 1.5 μM
Experimental: as §1
The effect of COH-SR4 was first examined in a NCI panel of cancer cell lines, the results of which indicated good activity of COH-SR4 towards lung cancer (FIG. 78A). […] Values are presented as mean±SD from two separate determinations with eight replicates each (n=16) (FIG. 78B). The COH-SR4 treatment exerted a significant inhibitory effect on the survival of lung cancer cells [IC50: H1417 cells-1.2±0.2 μM, H1618 cells-1.5±0.2 μM, H358 cells-2.1±0.2 μM and H520 cells-2.4±0.3 μM]. […] Following initial screening for the anticancer activity of COH-SR4, the effect of COH-SR4 on clonogenic potential was studied. Standard colony-forming assay was performed and the colonies were counted using Innotech Alpha Imager HP. […] The effect of COH-SR4 on induction of apoptosis was further investigated. […] TUNEL assay was performed using Promega fluorescence detection kit and examined using Zeiss LSM 510 META laser-scanning fluorescence microscope with filters 520 and 620 nm. […]

[5] = test system: A2058; assay: MTT assay, A2058; assay type: cell-based; conditions: Homo sapiens, A2058, 96 h
Experimental: Cell density measurements were performed using a hemocytometer to count reproductive cells resistant to staining with trypan blue. Approximately 20,000 cells were plated into each well of 96-well flat-bottomed micro-titer plates. After 12 h or 24 h incubation at 37° C., medium containing either COH-SR4 (ranging 0-200 μM) or elesclomol (ranging 0-20 μM) were added to the cells. After 24 h, 48 h or 96 h incubation, 20 μL of 5 mg/mL MTT were introduced to each well and incubated for 2 h. The plates were centrifuged and medium was decanted. Cells were subsequently dissolved in 100 μl DMSO with gentle shaking for 2 h at room temperature, followed by measurement of OD570 (91).

For `O=C(Nc1cc(Cl)cc(Cl)c1)Nc1cc(Cl)cc(Cl)c1` [COH-SR4, 1,3-bis(3,5-dichlorophenyl) urea], the Hematocrit ([1]; mean ± SE, n=6) was 41.0 ± 0.7%, the Hemoglobin ([1]; mean ± SE, n=6) was 13.9 ± 0.4 g/dL and the Platelets ([1]; mean ± SE, n=6) was 1055 ± 124 ×10^3/uL. For the same molecule, the RBC ([1]; mean ± SE, n=6) was 8.7 ± 0.2 ×10^6/uL, the WBC ([1]; mean ± SE, n=6) was 7.4 ± 0.9 ×10^3/uL and the ALP ([1]; plasma/serum) was 119.3 ± 2.4 units/L. For the same molecule, the ALT ([1]; plasma/serum) was 73.3 ± 2.4 units/L, the AST ([1]; plasma/serum) was 48.0 ± 3.0 units/L and the Albumin ([1]; plasma/serum) was 2.4 ± 0.1 g/dL. For the same molecule, the Cholsterol ([1]; plasma/serum) was 82.0 ± 0.1 mg/dL, the Creatinine ([1]; plasma/serum) was 0.2 ± 0.0 mg/dL and the Glucose ([1]; plasma/serum) was 304.2 ± 21.1 mg/dL. For the same molecule, the LDH ([1]; plasma/serum) was 822.7 ± 56.0 units/L, the Triglycerides ([1]; plasma/serum) was 78.7 ± 2.4 mg/dL and the “potency in killing B16F10 cells” value [2] was “best potency”. For the same molecule, the colony formation [3] was 40±4%, the colony formation [4] was 54±5% and the IC50 [5] was 11 ± 2 µM.

Source: patent publication US9808434B2, “Compound for treating cancer and diabetes” (CITY OF HOPE, priority 2011, dated 2017)
